Reference: US20250108027A1, “TOPICAL DELIVERY OF EDTA COMPOSITIONS” (priority 2023, published 2025)
Converted amounts (≈) assume the structure as drawn.

What was measured:
[1] = tested on: E. Coli HC1-R2A-1; conditions: alone, 37° C., 24 h
Procedure: (§1) Microbroth dilution in 96-well microtiter plates was performed on the E. coli and S. epidermidis strains. […] Each test was performed in duplicate. The MIC was determined as the lowest concentration where no growth was observed, but the adjacent wells had growth as determined by optical density.

[2] = tested on: S. epidermidis HC3-CA-1; test: MIC in isolation, microbroth dilution; assay type: cell-based
Procedure: as §1

[3] = tested on: E. Coli HC1-R2A-1; test: MBC in isolation, subculture from MIC plates; assay type: cell-based
Procedure: (§2) This new microtiter plate was incubated at 37° C. and growth was quantified after 24 h by measuring the optical density in the wells.

[4] = tested on: S. epidermidis HC3-CA-1; test: MBC in isolation, subculture from MIC plates; assay type: cell-based
Procedure: as §2

[5] = tested on: E. Coli HC1-R2A-1; test: MIC in combination, checkerboard titration; conditions: in combination with tetracycline
Procedure: (§3) Microtiter plates were incubated at 37° C. for 24 h and the results were analyzed. Each test included a growth control without addition of any antimicrobials, as well as an uninoculated control column to ensure there was no contamination in the plate. The combination MIC was taken as the concentration where no growth was observed by optical density but the wells immediately adjacent had growth. To determine the MBC, 5 μL aliquots were removed from each well in the 96-well MIC plates above and used to inoculate a new microtiter plate that was filled with Mueller-Hinton media. This new microtiter plate was incubated at 37° C. for 24 h and growth was quantified by measuring the optical density in the wells.
(§4) The potential interaction of the two antimicrobials was determined by the FICI (fractional inhibitory concentration index) and FBCI (fractional bactericidal concentration index).

[6] = tested on: S. epidermidis HC3-CA-1; test: MIC in combination, checkerboard titration; conditions: in combination with tetracycline
Procedure: as §3, §4

[7] = tested on: E. Coli HC1-R2A-1; test: MBC in combination, checkerboard titration and subculture; conditions: in combination with tetracycline
Procedure: as §3, §4

[8] = tested on: S. epidermidis HC3-CA-1; test: as above; conditions: in combination with tetracycline
Procedure: as §3, §4

Structure (SMILES)	MIC in Isolation, T-EDTA [1] [wt %]	MIC in Isolation, T-EDTA ([2]; alone, 37° C., 24 h) [wt %]	MBC in Isolation, T-EDTA ([3]; alone) [wt %]	MBC in Isolation, T-EDTA ([4]; alone) [wt %]	MIC in Combination, T-EDTA [5] [wt %]	MIC in Combination, T-EDTA [6] [wt %]	MBC in Combination, T-EDTA [7] [wt %]	MBC in Combination, T-EDTA [8] [wt %]	MIC ([2]; Staphylococcus epidermidis, HC3CA1, read-out: MIC in Isolation, Tetracycline, alone, 37° C., 24 h) [µg/mL]	MBC ([3]; Escherichia coli, read-out: MBC in Isolation, Tetracycline, alone) [µg/mL]	MBC ([4]; Staphylococcus epidermidis, HC3CA1, read-out: MBC in Isolation, Tetracycline, alone) [µg/mL]
O=C([O-])CN(CCN(CC(=O)[O-])CC(=O)[O-])CC(=O)[O-].[Na+].[Na+].[Na+].[Na+] [T-EDTA, tetrasodium EDTA]	1	0.0625	1	4	0.25	0.015	0.25	0.25			
CN(C)[C@@H]1C(O)=C(C(N)=O)C(=O)[C@@]2(O)C(O)=C3C(=O)c4c(O)cccc4[C@@](C)(O)[C@H]3C[C@@H]12 [Tetracycline, tetracycline, reference compound]									8 (≈ 18 µM)	512 (≈ 1150 µM)	8 (≈ 18 µM)
